Test results taken from ChEMBL document CHEMBL4334535, “Novel Pyrazolyl-dihydroisoquinolines as Positive Allosteric Modulator of the Dopamine D1 Receptor” (ACS Med Chem Lett, 2020).
Activity calls are given as the source filed them. The rule behind the calls is not given here.

Assays:
D(1A) dopamine receptor [1] = target: T1, D(1A) dopamine receptor (Homo sapiens, UniProt P21728); assay: Potentiation of dopamine-induced positive allosteric modulation of human D1 receptor expressed in HEK293 cells assessed as cAMP production measured after 60 to 90 mins by HTRF assay relative to control; format: functional, cell-based; design: concentration or dose not given beside the values
Mus musculus = assay: Increase in basal locomotor activity in transgenic knockout C57BL/6 mouse expressing human D1 receptor mouse at 10 ml/kg, po measured every 10 mins for 60 mins by automated system analysis; format: functional, organism-based
D(1A) dopamine receptor [2] = target: T1, D(1A) dopamine receptor; assay: Positive allosteric modulation of human D1 receptor expressed in HEK293 assessed as cAMP production incubated for 60 mins by HTRF assay; format: functional, cell-based

T1 sequence (P21728 whole entry): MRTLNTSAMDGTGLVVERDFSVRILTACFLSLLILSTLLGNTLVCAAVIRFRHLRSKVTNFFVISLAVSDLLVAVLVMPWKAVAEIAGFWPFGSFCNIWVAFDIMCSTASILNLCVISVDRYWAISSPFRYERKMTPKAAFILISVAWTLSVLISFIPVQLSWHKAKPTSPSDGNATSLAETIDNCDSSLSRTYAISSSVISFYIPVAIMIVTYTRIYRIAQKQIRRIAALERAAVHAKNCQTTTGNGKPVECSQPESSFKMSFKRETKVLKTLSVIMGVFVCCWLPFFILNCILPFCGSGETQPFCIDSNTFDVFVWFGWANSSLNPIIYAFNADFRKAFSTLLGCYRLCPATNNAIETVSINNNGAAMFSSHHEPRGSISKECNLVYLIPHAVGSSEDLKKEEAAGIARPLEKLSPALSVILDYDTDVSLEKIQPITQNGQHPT

Question: For C[C@H]1c2cccc(-c3cnn(C4CC4)c3)c2C[C@H](CO)N1C(=O)Cc1c(Cl)cccc1Cl, which Activity (D(1A) dopamine receptor [1]) is on record?
Answer: The Activity was 88.1%.

Question: Which results are given for C[C@H]1c2cccc(-c3cnn(C)c3)c2C[C@H](CO)N1C(=O)Cc1c(Cl)cccc1Cl?
Answer: Activity (D(1A) dopamine receptor [1]): 91.4%; Activity (Mus musculus): Active

Question: Which Activity (D(1A) dopamine receptor [1]) does the source give for CCn1cc(-c2cccc3c2C[C@H](CO)N(C(=O)Cc2c(Cl)cccc2Cl)[C@H]3C)cn1 here?
Answer: The Activity was 91.2%.

Question: What does the source list for C[C@H]1c2cccc(-c3cnn(CCO)c3)c2C[C@H](CO)N1C(=O)Cc1c(Cl)cccc1Cl?
Answer: EC50 (D(1A) dopamine receptor [2]): 18.3 nM; Activity (D(1A) dopamine receptor [1]): 79.1%

Question: How did the Activity (D(1A) dopamine receptor [1]) turn out when C[C@H]1c2cccc(-c3cn[nH]c3)c2C[C@H](CO)N1C(=O)Cc1ccc(F)cc1Cl was run?
Answer: The Activity was 77.1%.

Question: Which Activity (D(1A) dopamine receptor [1]) does the source give for C[C@H]1c2cccc(-c3cnn(C)c3)c2C[C@H](CO)N1C(=O)Cc1ccccc1Cl here?
Answer: Its Activity is 80.4%.

Question: C[C@H]1c2cccc(-c3cn[nH]c3)c2C[C@H](CO)N1C(=O)Cc1cc(F)ccc1Cl was tested. Which Activity (D(1A) dopamine receptor [1]) did it give?
Answer: Its Activity is 79.8%.

Question: Which Activity (D(1A) dopamine receptor [1]) does the source give for C[C@H]1c2cccc(-c3cn[nH]c3)c2C[C@H](CO)N1C(=O)Cc1c(F)cccc1F here?
Answer: Its Activity is 78.1%.

Question: How did the Activity (D(1A) dopamine receptor [1]) turn out when C[C@H]1c2cccc(-c3cn[nH]c3)c2C[C@H](CO)N1C(=O)Cc1c(Cl)cccc1Cl was run?
Answer: The Activity was 75.9%.

Question: And the Activity (Mus musculus)?
Answer: Its Activity is “Active”.

Question: With C[C@H]1c2cccc(-c3cn[nH]c3)c2C[C@H](CO)N1C(=O)Cc1c(F)cccc1Cl as the molecule, how does the Activity (D(1A) dopamine receptor [1]) read?
Answer: Its Activity is 81.5%.
